Results reported in ChEMBL document CHEMBL6087385, “Synthesis and biological evaluation of Ribo 7-N/O/S pyrimidine 9-deaza C-nucleoside analogs as new antiviral agents for inhibiting HCV RNA-dependent RNA polymerases” (Eur J Med Chem, 2024).
Activity calls are given as the source filed them. The calls are words filed in the database; no cut-off is given here.

Key:
Hepatitis C virus [1] = test: Antiviral activity against Hepatitis C virus infected in Ava5 cells assessed as inhibition of viral RNA replication incubated for 72 hrs by RT-PCR analysis; type: functional, organism-based; settings: for Activity: Hepacivirus hominis
Hepatitis C virus [2] = test: Antiviral activity against HCV infected in human Huh-7 cells assessed as inhibition of viral RNA replication incubated for 24 hrs by ribonuclease protection assay; type: functional, organism-based, Hepacivirus hominis; settings: Huh-7, 24 h
Hepatitis C virus [3] = test: Antiviral activity against HCV genotype 1a infected in GLuc-1 cells; type: functional, organism-based, Hepacivirus hominis
Hepatitis C virus [4] = test: Anti-viral activity against HCV genotype 1b infected in human Huh-luc cells; type: functional, organism-based, Hepacivirus hominis
Hepatitis C virus [5] = test: Anti-viral activity against HCV genotype 2a infected in 2aLucNeo-25 cells; type: functional, organism-based, Hepacivirus hominis
Hepatitis C virus [6] = test: Anti-viral activity against HCV genotype 2a infected in Lunet-CD81 cells; type: functional, organism-based, Hepacivirus hominis

| SMILES | Activity (Hepatitis C virus [1]) | other results |
| --- | --- | --- |
| C[C@@]1(O)[C@H](O)[C@@H](CO)O[C@H]1c1coc2c(=S)[nH]cnc12 | inactive | – |
| C[C@@]1(O)[C@H](O)[C@@H](CO)O[C@H]1c1coc2c(N)nc(N)nc12 | inactive | – |
| C[C@@]1(O)[C@H](O)[C@@H](CO)O[C@H]1c1coc2c(=O)[nH]cnc12 | inactive | – |
| C[C@@]1(O)[C@H](O)[C@@H](CO)O[C@H]1n1cnc2c(N)ncnc21 | – | EC50 (Hepatitis C virus [2]): 300 nM; EC50 (Hepatitis C virus [3]): 230 nM; EC50 (Hepatitis C virus [4]): 300 nM; EC50 (Hepatitis C virus [5]): 1430 nM; EC50 (Hepatitis C virus [6]): 300 nM |
| C[C@@]1(O)[C@H](O)[C@@H](CO)O[C@H]1c1c[nH]c2c(=O)[nH]c(N)nc12 | inactive | – |
| C[C@@]1(O)[C@H](O)[C@@H](COP(=O)(O)OP(=O)(O)OP(=O)(O)O)O[C@H]1c1coc2c(N)ncnc12 | – | IC50 (Hepatitis C virus [1]; Ava5, 72 h): 5000 nM |
| C[C@@]1(O)[C@H](O)[C@@H](CO)O[C@H]1c1coc2c(=O)[nH]c(N)nc12 | inactive | – |
| C[C@@]1(O)[C@H](O)[C@@H](CO)O[C@H]1c1csc2c(N)ncnc12 | inactive | – |
